pIC50: −log10 of the molar value. Where two headings read alike, the source gives them in different places.
Tests used:
[1] = molecular target: T1, beta-catenin/TCF4 engagement (Homo sapiens, UniProt P35222); experiment: Nano-BRET target engagement assay (B-cat-Halo & TCF4-Luc in HEK293 cells); assay type: cell-based; conditions: for pIC50: read-out: NanoBRET Abs IC50
T1 construct: expressed in transfected cells; host or cells: HEK293
T1 sequence (P35222 1-781): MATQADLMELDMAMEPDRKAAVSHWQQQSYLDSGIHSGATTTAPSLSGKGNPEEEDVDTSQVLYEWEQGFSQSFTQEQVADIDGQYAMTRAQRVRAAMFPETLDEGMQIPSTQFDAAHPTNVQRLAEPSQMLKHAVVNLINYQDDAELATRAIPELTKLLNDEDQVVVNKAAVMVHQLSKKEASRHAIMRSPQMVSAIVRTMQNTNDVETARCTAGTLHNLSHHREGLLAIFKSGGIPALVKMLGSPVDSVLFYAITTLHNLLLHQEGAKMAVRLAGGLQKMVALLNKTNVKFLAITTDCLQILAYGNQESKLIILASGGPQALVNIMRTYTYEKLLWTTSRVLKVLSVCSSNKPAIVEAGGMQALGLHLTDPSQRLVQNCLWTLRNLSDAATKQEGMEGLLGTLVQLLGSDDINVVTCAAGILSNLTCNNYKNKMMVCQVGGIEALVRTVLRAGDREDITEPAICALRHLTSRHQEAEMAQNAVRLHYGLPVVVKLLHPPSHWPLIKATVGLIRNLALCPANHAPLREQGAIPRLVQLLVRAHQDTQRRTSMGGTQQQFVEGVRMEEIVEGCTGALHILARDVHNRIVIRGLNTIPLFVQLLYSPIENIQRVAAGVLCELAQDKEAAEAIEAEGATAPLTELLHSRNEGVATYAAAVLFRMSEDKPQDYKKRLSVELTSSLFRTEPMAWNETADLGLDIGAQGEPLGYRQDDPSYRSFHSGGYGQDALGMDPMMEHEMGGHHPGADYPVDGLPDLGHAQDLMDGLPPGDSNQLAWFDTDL

[2] = molecular target: T2, full-length beta-Catenin (Uniprot ID P35222) (Homo sapiens, UniProt P35222); experiment: Fluorescence polarization IC50 (beta-catenin / 5FAM-TCF4 10-53 competition); assay type: binding; conditions: fluorescence polarization; for pIC50: read-out: beta-Catenin FP IC50
T2 construct: 10 nM full-length beta-Catenin (Uniprot ID P35222)
T2 sequence (P35222 1-781): T1 sequence (P35222 1-781)

Structure (SMILES) | pIC50 ([1]; absolute IC50) | pIC50 [2] | pIC50 [1] | IC50 ([1]; NanoBRET Abs IC50 (uM)) [µM] | IC50 ([2]; beta-Catenin FP IC50 (nM)) [nM]
CC(=O)N1CCC[C@]12CC=CCCCC1(CCCC=CCCCOC(=O)N3CC[C@@](C(=O)N[C@@H](Cc4ccccc4C(F)(F)F)C(=O)N[C@@H](Cc4csc5ccccc45)C(=O)N[C@@H](C)C(N)=O)(C3)NC(=O)[C@H](CC(C)C)NC(=O)[C@H](Cc3ccccc3)NC(=O)[C@H](C)NC(=O)[C@H](CCC(N)=O)NC(=O)[C@H](Cc3cc(C(=O)O)cc(C(C)C)c3)NC(=O)[C@H](CC(=O)O)NC1=O)NC(=O)[C@H](CC(C)(C)C)NC(=O)[C@H](CC(=O)O)NC2=O (stereo partly drawn) [I-2431, Ac-PL3-Asp-Npg-B5-Asp-5iPr3COOHF-Gln-Ala-Phe-Leu-PyrS2-2F3MeF-BztA-Ala-NH2] | 5.15 | 7.48 | – | – | –
CC(=O)N1CCC[C@]12CC=CCCCC1(CCCC=CCCCOC(=O)N3CC[C@@](C(=O)N[C@@H](Cc4ccsc4)C(=O)N[C@@H](Cc4csc5ccccc45)C(=O)N[C@@H](CCC(N)=O)C(N)=O)(C3)NC(=O)[C@H](CCC(=O)N3CCN(c4ccncc4)CC3)NC(=O)[C@H](Cc3ccccc3)NC(=O)[C@H](C)NC(=O)[C@H](C)NC(=O)[C@H](CN(CC(=O)O)CC(F)(F)F)NC(=O)[C@H](CC(=O)O)NC1=O)NC(=O)[C@H](CC(C)(C)C)NC(=O)[C@H](CC(=O)O)NC2=O (stereo partly drawn) [I-1938, Ac-PL3-Asp-Npg-B5-Asp-TfeGA-Ala-Ala-Phe-[4PyPip]GlnR-PyrS2-3Thi-BztA-Gln-NH2] | – | – | – | 30 | 8
CC(=O)N1CCC[C@]12CC=CCCCC1(CCCC=CCCCOC(=O)N3CC[C@@](C(=O)N[C@@H](Cc4ccsc4)C(=O)N[C@@H](Cc4csc5ccccc45)C(=O)N[C@@H](CCC(N)=O)C(N)=O)(C3)NC(=O)[C@H](Cn3cc(CN(C)C)nn3)NC(=O)[C@H](Cc3ccccc3)NC(=O)[C@H](C)NC(=O)[C@H](C)NC(=O)[C@H](CN(CC(=O)O)CC(F)(F)F)NC(=O)[C@H](CC(=O)O)NC1=O)NC(=O)[C@H](CC(C)(C)C)NC(=O)[C@H](CC(=O)O)NC2=O (stereo partly drawn) [I-1862, Ac-PL3-Asp-Npg-B5-Asp-TfeGA-Ala-Ala-Phe-[CH2NMe2]TriAzDap-PyrS2-3Thi-BztA-Gln-NH2] | – | 8.00 | 4.71 | – | –
CC(=O)N1CCC[C@]12CC=CCCCC1(CCCC=CCCCOC(=O)N3CC[C@@](C(=O)N[C@@H](Cc4ccccc4C(F)(F)F)C(=O)N[C@@H](Cc4csc5c(F)cccc45)C(=O)N[C@@H](CCC(N)=O)C(N)=O)(C3)NC(=O)[C@H](CC(C)C)NC(=O)[C@H](Cc3ccccc3)NC(=O)[C@H](C)NC(=O)[C@H](C)NC(=O)[C@H](Cc3cccc(C(=O)O)c3)NC(=O)[C@H](CC(=O)O)NC1=O)NC(=O)[C@H](CC(C)(C)C)NC(=O)[C@H](CC(=O)O)NC2=O (stereo partly drawn) [I-2488, Ac-PL3-Asp-Npg-B5-Asp-3COOHF-Ala-Ala-Phe-Leu-PyrS2-2F3MeF-7FBztA-Gln-NH2] | 5.44 | 7.59 | – | – | –
CC(=O)N1CCC[C@]12CC=CCCCC1(CCCC=CCCCOC(=O)N3CC[C@@](C(=O)N[C@@H](Cc4ccsc4)C(=O)N[C@@H](Cc4csc5ccccc45)C(=O)N[C@@H](C)C(N)=O)(C3)NC(=O)[C@H](CC(C)C)NC(=O)[C@H](Cc3ccccc3)NC(=O)[C@H](C)NC(=O)[C@H](CC(=O)N(C)C)NC(=O)[C@H](Cc3cccc(C(=O)O)c3)NC(=O)[C@H](CC(=O)O)NC1=O)NC(=O)[C@H](CC(C)(C)C)NC(=O)[C@H](CC(=O)O)NC2=O (stereo partly drawn) [I-2188, Ac-PL3-Asp-Npg-B5-Asp-3COOHF-Me2Asn-Ala-Phe-Leu-PyrS2-3Thi-BztA-Ala-NH2] | – | 7.96 | 5.12 | – | –
CC(=O)N1CCC[C@]12CC=CCCCC1(CCCC=CCCCOC(=O)N3CC[C@@](C(=O)N[C@@H](Cc4ccccc4Cl)C(=O)N[C@@H](Cc4csc5ccccc45)C(=O)N[C@@H](CCCN4CCOCC4)C(N)=O)(C3)NC(=O)[C@H]([C@@H](C)O)NC(=O)[C@H](Cc3ccccc3)NC(=O)[C@H](C)NC(=O)[C@H](C)NC(=O)[C@H](CN(CC(=O)O)CC(F)(F)F)NC(=O)[C@H](CC(=O)O)NC1=O)NC(=O)[C@H](CC(C)(C)C)NC(=O)[C@H](CC(=O)O)NC2=O (stereo partly drawn) [I-1609, Ac-PL3-Asp-Npg-B5-Asp-TfeGA-Ala-Ala-Phe-Thr-PyrS2-2C1F-BztA-MorphNva-NH2] | 5.17 | 7.82 | – | – | –

Further lines, with some results ahead:

pIC50 ([1]; absolute IC50) | pIC50 [2] | pIC50 [1] | Structure (SMILES) | IC50 ([1]; NanoBRET Abs IC50 (uM)) [µM] | IC50 ([2]; beta-Catenin FP IC50 (nM)) [nM]
< 4.70 | 7.68 | – | CC(=O)N1CCC[C@]12CC=CCCCC1(CCCC=CCCCOC(=O)N3CC[C@@](C(=O)N[C@@H](Cc4ccsc4)C(=O)N[C@@H](Cc4csc5ccccc45)C(=O)N[C@@H](CCC(N)=O)C(N)=O)(C3)NC(=O)[C@H](CC(C)C)NC(=O)[C@H](Cc3ccccc3)NC(=O)[C@H](C)NC(=O)[C@H](C)NC(=O)[C@H](CC(=O)O)NC(=O)[C@H](CC(=O)O)NC1=O)NC(=O)[C@H](CO)NC(=O)[C@H](CC(=O)O)NC2=O (stereo partly drawn) [I-1513, Ac-PL3-Asp-Ser-B5-Asp-Asp-Ala-Ala-Phe-Leu-PyrS2-3Thi-BztA-Gln-NH2] | – | –
5.28 | 8.30 | – | CC(=O)N1CCC[C@]12CC=CCCCC1(CCCC=CCCCOC(=O)N3CC[C@@](C(=O)N[C@@H](Cc4ccsc4)C(=O)N[C@H](C(=O)N[C@@H](CCC(N)=O)C(N)=O)[C@H](C)c4ccc5ccccc5c4)(C3)NC(=O)[C@H](CC(C)C)NC(=O)[C@H](Cc3ccccc3)NC(=O)[C@H](C)NC(=O)[C@H](C)NC(=O)[C@H](Cc3cccc(C(=O)O)c3)NC(=O)[C@H](CC(=O)O)NC1=O)NC(=O)[C@H](CC(C)(C)C)NC(=O)[C@H](CC(=O)O)NC2=O (stereo partly drawn) [I-2311, Ac-PL3-Asp-Npg-B5-Asp-3COOHF-Ala-Ala-Phe-Leu-PyrS2-3Thi-RbMe2NapA-Gln-NH2] | – | –
4.62 | 7.39 | – | CC(=O)N1CCC[C@]12CC=CCCCC1(CCCC=CCCCOC(=O)N3CC[C@@](C(=O)N[C@@H](Cc4ccsc4)C(=O)N[C@@H](Cc4cccc5ccccc45)C(=O)N[C@@H](CCC(N)=O)C(N)=O)(C3)NC(=O)[C@H](CC(C)C)NC(=O)[C@H](Cc3ccccc3)NC(=O)[C@H](C)NC(=O)[C@H](C)NC(=O)[C@H](CC(=O)O)NC(=O)[C@H](CC(=O)O)NC1=O)NC(=O)[C@H](CC(C)(C)C)NC(=O)[C@H](CC(=O)O)NC2=O (stereo partly drawn) [I-1234, Ac-PL3-Asp-Npg-B5-Asp-Asp-Ala-Ala-Phe-Leu-PyrS2-3Thi-1NapA-Gln-NH2] | – | –
4.84 | 7.68 | – | CC(=O)N1CCC[C@]12CC=CCCCC1(CCCC=CCCCOC(=O)N3CC[C@@](C(=O)N[C@@H](Cc4ccsc4)C(=O)N[C@@H](Cc4csc5ccccc45)C(=O)N[C@@H](CCC(N)=O)C(N)=O)(C3)NC(=O)[C@H](CC(C)C)NC(=O)[C@H](Cc3ccccc3)NC(=O)[C@H](C)NC(=O)[C@H](C)NC(=O)[C@H](CCN(CCC(F)(F)F)CC(=O)O)NC(=O)[C@H](CC(=O)O)NC1=O)NC(=O)[C@H](CC(C)(C)C)NC(=O)[C@H](CC(=O)O)NC2=O (stereo partly drawn) [I-1839, Ac-PL3-Asp-Npg-B5-Asp-[Tfp]GAbu-Ala-Ala-Phe-Leu-PyrS2-3Thi-BztA-Gln-NH2] | – | –
4.76 | 7.96 | – | CC(=O)N1CCC[C@]12CC=CCCCC1(CCCC=CCCCOC(=O)N3CC[C@@](C(=O)N[C@@H](Cc4ccsc4)C(=O)N[C@@H](Cc4csc5ccccc45)C(=O)N[C@@H](CCC(N)=O)C(N)=O)(C3)NC(=O)[C@H](CC(N)=O)NC(=O)[C@H](Cc3ccccc3)NC(=O)[C@H](C)NC(=O)[C@H](C)NC(=O)[C@H](CC(=O)O)NC(=O)[C@H](CC(=O)O)NC1=O)NC(=O)[C@H](CC(C)(C)C)NC(=O)[C@H](CC(N)=O)NC2=O (stereo partly drawn) [I-1220, Ac-PL3-Asn-Npg-B5-Asp-Asp-Ala-Ala-Phe-Asn-PyrS2-3Thi-BztA-Gln-NH2] | – | –
< 4.70 | 5.16 | – | CCOC(=O)C[C@@H]1NC(=O)C2(CCCC=CCCCOC(=O)N3CC[C@@](C(=O)N[C@@H](Cc4ccsc4)C(=O)N[C@@H](Cc4csc5ccccc45)C(=O)N[C@@H](CCC(N)=O)C(N)=O)(C3)NC(=O)[C@H](CC(C)C)NC(=O)[C@H](Cc3ccccc3)NC(=O)[C@H](C)NC(=O)[C@H](C)NC(=O)[C@H](CC(=O)O)NC1=O)CCCC=CC[C@]1(CCCN1C(C)=O)C(=O)N[C@@H](CC(=O)O)C(=O)N[C@@H](CC(C)(C)C)C(=O)N2 (stereo partly drawn) [I-2357, Ac-PL3-Asp-Npg-B5-[Et]AspE-Asp-Ala-Ala-Phe-Leu-PyrS2-3Thi-BztA-Gln-NH2] | – | –
– | 8.05 | 5.54 | CC(=O)N1CCC[C@]12CC=CCCCC1(CCCC=CCCCOC(=O)N3CC[C@@](C(=O)N[C@@H](Cc4ccccc4Cl)C(=O)N[C@@H](Cc4csc5ccccc45)C(=O)N[C@@H](CCC(N)=O)C(N)=O)(C3)NC(=O)[C@H](CC(C)C)NC(=O)[C@H](Cc3ccccc3)NC(=O)[C@H](C)NC(=O)[C@H](C)NC(=O)[C@H](Cc3ccc(F)c(C(=O)O)c3)NC(=O)[C@H](CC(=O)O)NC1=O)NC(=O)[C@H](CC(C)(C)C)NC(=O)[C@H](CC(=O)O)NC2=O (stereo partly drawn) [I-2203, Ac-PL3-Asp-Npg-B5-Asp-4F3COOHF-Ala-Ala-Phe-Leu-PyrS2-2C1F-BztA-Gln-NH2] | – | –

— patent publication US20240116985A1, “STAPLED PEPTIDES AND METHODS THEREOF” (priority 2020, published 2024)
